Test results: patent US5173416A, “L-carnitine dehydrogenase from alcalgenes” (Toyo Jozo Kabushiki Kaisha, priority 1989, dated 1992)
Where two headings read alike, the source gives them in different places.

Test system: L-carnitine dehydrogenase from Alcaligenes sp. No. 981 (FERM BP-2570)
Test: Km determination of L-carnitine dehydrogenase (diaphorase/NBT coupled reaction mixture)
Format: biochemical
Protocol: Km-value for NAD^+ is measured in various concentrations of NAD^+ in a reaction mixture of:
100 mM Tris-HCl buffer (pH 9.0)
5 U diaphorase (Toyo Jozo Co.)
0.025% NBT (Wako Pure Chem. Co.)
1% Tween 80 (Wako Pure Chem. Co.) and
In the reaction mixture, 50 mM L-carnitine is replaced by 1 mM NAD^+, and the concentration of L-carnitine is varied to measure the Km-value of L-carnitine.
The results are as shown above.

Row | SMILES | Km (100 mM Tris-HCl buffer pH 9.0, 1 mM NAD+, L-carnitine concentration varied, read-out: Km-value (L-carnitine)) | Km (100 mM Tris-HCl buffer pH 9.0, 50 mM L-carnitine, NAD+ concentration varied, read-out: Km-value (NAD+))
1 | C[N+](C)(C)C[C@H](O)CC(=O)[O-] [L-carnitine] | 9.3 mM | 
2 | NC(=O)c1ccc[n+]([C@@H]2O[C@H](COP(=O)([O-])OP(=O)(O)OC[C@H]3O[C@@H](n4cnc5c(N)ncnc54)[C@H](O)[C@@H]3O)[C@@H](O)[C@H]2O)c1 [NAD^+] |  | 0.141 mM
